Data on two molecules can be found in article PMC5398486, “Cheminformatics-aided discovery of small-molecule Protein-Protein Interaction (PPI) dual inhibitors of Tumor Necrosis Factor (TNF) and Receptor Activator of NF-κB Ligand (RANKL)” (PLoS Computational Biology, 2017).

Usually IC50 stands for the concentration that gives 50% inhibition. Usually Kd stands for the concentration at which binding is half-saturated. What is called solubility is how much of the substance goes into solution per volume. Higher therefore signals much dissolved substance.

Series [1] can be described thus: Measurement of cytotoxicity in L929 cells (crystal violet). Type of series: cell-based. The conditions noted are these: mouse, compound alone, read-out: L929 LC50. The protocol:
L929 cells were seeded onto a 96-well plate (3x10^4 cells/well). After 24 h, cells were treated with the compounds at increasing concentrations. DMSO was used in the untreated control. The next day, a PBS-washing step was performed to remove dead cells. The remaining live cells were next fixed with methanol and stained with crystal violet. After solubilization with acetic acid, staining was quantified spectrophotometrically at 570 nm. Survival is expressed with respect to the untreated control. Experiments were performed in triplicate.

The next series concerns the target T1, TNF/TNFR1 interaction (Homo sapiens, UniProt P01375).
T1 construct: purchased PeproTech
In words: TNF/TNFR1 ELISA assay. Type of series: binding. The protocol:
96-well plates were coated with 0.1 mg/mL recombinant soluble human TNFR1 (PeproTech) in PBS overnight at 4°C. […] After two consecutive rounds of washes, plates were incubated with a rabbit anti-human-TNF antibody (provided by Prof. W. A. Buurman, University of Maastricht) and an anti-rabbit secondary antibody conjugated with HRP (Vector Laboratories). Both incubations were for 1 h and were performed at room temperature. Following a last round of washes, the signal was finally developed using the TMB Substrate Kit (ThermoFisher Scientific) and was measured spectrophotometrically at 450 nm. Experiments were performed in triplicate. Having established that the selected compounds obstruct TNF function, and since TNF exerts its functions mainly through interacting with the TNFR1 receptor, a further test was performed to evaluate the effect of inhibition on this protein-receptor interaction.
(ELISA stands for enzyme-linked immunosorbent assay.)

The target of a further series is T2, RANKL (Homo sapiens, UniProt O14788).
T2 sequence (O14788 143-317): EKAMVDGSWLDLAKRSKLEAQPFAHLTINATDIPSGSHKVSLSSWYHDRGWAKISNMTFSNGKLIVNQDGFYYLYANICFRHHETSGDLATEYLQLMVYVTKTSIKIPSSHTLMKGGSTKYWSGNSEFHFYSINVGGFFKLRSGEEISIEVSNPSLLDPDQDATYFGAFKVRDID
In words: Fluorescence-based binding affinity assay, RANKL. The note with it: for 'n' value from Scatchard plot (ligand binding sites per protein molecule): RANKL, binding assay raw data. The procedure: For use in the binding assays, recombinant TNF and RANKL were expressed and purified as previously described.[84–86] Fluorescence intensity was measure with a Synergy H1 Multi-Mode Reader (BioTek) in 96-well microplates (black) at 25°C. […] During preparation of the solutions the buffer was firstly added to all wells followed by the ligand solution and finally the protein was added. All solutions were mixed by pipetting and equilibrated for 1h at 25°C before measurement. […] Experiments were performed for TNF in 10 mM citrate-phosphate (pH 6.5) and for RANKL in 25 mM Tris–HCl buffer, 100 mM NaCl (pH 7.5); both buffers were supplemented with PEG3350 at the concentrations indicated in the respective figures. Kd values were calculated as mean ± SEM from three independent experiments.
Differences in fluorescence intensity between the protein/ligand complex and free protein (or free ligand) were analysed as previously described in [Papaneophytou et al. (2013) ACS Med Chem Lett. 4: 137-141] (Eq. S6) in order to determine the dissociation constant (Kd) of the various protein-ligand systems.
In Eq. (S6) Fobs is the observed fluorescence intensity; FBG is the fluorescence background signal; MFLF [picture] and PF are the molar fluorescence and concentration of free protein, respectively; FR is the fluorescence ratio of bound protein (or bound ligand in the case of a fluorescence ligand); LT and PT are the total concentrations of ligand and protein, respectively. A detailed analysis of the development of the fluorescence ligand-binding assay is given in [Papaneophytou et al. (2013) ACS Med Chem Lett. 4: 137-141].

The next series addresses T3, human RANKL (Homo sapiens, UniProt O14788).
T3 sequence (O14788 140-317 limits assumed): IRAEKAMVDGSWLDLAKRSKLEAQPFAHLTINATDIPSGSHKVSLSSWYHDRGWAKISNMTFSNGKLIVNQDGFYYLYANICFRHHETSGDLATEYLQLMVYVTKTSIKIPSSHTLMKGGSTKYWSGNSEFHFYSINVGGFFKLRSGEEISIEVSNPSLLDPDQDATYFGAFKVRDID
Kind of series: RANKL-induced osteoclastogenesis / osteoclastic (TRAP) activity assay in bone marrow cells. It counts as cell-based. The conditions noted are these: 50 ng/ml human RANKL + 25 ng/ml M-CSF, read-out: IC50 (RANKL complexes, TRAP activity).

Series [2] can be described thus: Solubility with PEG3350 as co-solvent. Type of series: physicochemical. From the text: PEG3350 was used as co-solvent in order to enhance inhibitors solubility and thus eliminate the possibility of aggregates formation. | column: Solubility (μM)
The target of a further series is TNF (Homo sapiens, UniProt P01375). In words: TNF-induced death assay in L929 cells. The note with it: 0.25 ng/mL human TNF + 2 μg/mL actinomycin D, approx. 24 h, read-out: L929 IC50 (inhibition of TNF-induced death). It counts as cell-based. Also on record: purchased PeproTech. The protocol:
L929 cells were cultured on 96-well plates (3×10^4 cells/well) overnight. Then, 0.25 ng/mL human TNF (PeproTech) and 2 μg/mL actinomycin D (Sigma–Aldrich) were added. TNF with the compounds were pre-incubated for 30 min at room temperature before adding them to cells to assess inhibition. Background death was estimated using an actinomycin D treated-only control. After approximately 24 h, dead cells were cleared away by washing with PBS. The remaining live cells were then fixed with methanol and stained with crystal violet. After solubilization with acetic acid, staining was quantified spectrophotometrically at 570 nm. Cytotoxicity is expressed with respect to the background death control and also relative to the toxicity of compounds. Experiments were repeated three times.
Biological screening of the compounds examined their capacity to block TNF function in a modified TNF bioactivity assay.[91] The basis of this test is the death-inducing function of TNF in the murine fibrosarcoma cell line L929 following sensitization by the transcription inhibitor actinomycin D. Functional potency of the compounds would translate in a significant reduction of TNF-induced death. Using this approach, out of the nine shortlisted small molecules, two compounds (T8 and T23) were selected as follows. […]

The mark [3] stands for this setting: RANKL 0.5 μM, PEG3350 2.5%, 25 mM Tri-HCl, 100 mM NaCl pH 7.5, read-out: Binding affinity (Kd), RANKL.
Where [4] appears, read: RANKL 0.5 μM, PEG3350 5%, 25 mM Tri-HCl, 100 mM NaCl pH 7.5, read-out: Binding affinity (Kd), RANKL.
[5] abbreviates: RANKL 1.5 μM, PEG3350 5%, 25 mM Tri-HCl, 100 mM NaCl pH 7.5, read-out: Binding affinity (Kd), RANKL.
Setting [6] is: RANKL 2.5 μM, PEG3350 5%, 25 mM Tri-HCl, 100 mM NaCl pH 7.5, read-out: Binding affinity (Kd), RANKL.
The mark [7] stands for this setting: fluorescence assay, 25°C, 25 mM Tris-HCl, 100 mM NaCl, pH 7.5, 5% PEG3350, read-out: Kd (RANKL complexes).
The mark [8] stands for this setting: 2.5% v/v PEG3350 as co-solvent, PEG3350 2.5% v/v.
The mark [9] stands for this setting: 5% v/v PEG3350 as co-solvent, aqueous with cosolvent or surfactant or cyclodextrin, PEG3350 5% v/v.

Values after ≈ are worked out from the molar mass of the structure shown. Read-outs that look alike come from different tables or passages of the source.

Sequence of TNF (P01375 77-233 limits assumed): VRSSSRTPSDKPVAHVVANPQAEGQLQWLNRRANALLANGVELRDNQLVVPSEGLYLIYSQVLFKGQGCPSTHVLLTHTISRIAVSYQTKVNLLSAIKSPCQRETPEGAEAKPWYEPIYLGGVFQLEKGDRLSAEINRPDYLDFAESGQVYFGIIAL
T1 sequence (P01375 77-233 limits assumed): as above
Description for human RANKL: To visualize osteoclasts, cell cultures were stained with TRAP (tartrate-resistant acid phosphatase), using an acid phosphatase leukocyte (TRAP) kit (Sigma-Aldrich). Osteoclasts were identified as TRAP-positive multinucleated cells containing more than three nuclei.
To measure osteoclast activity, bone marrow cells were cultured for four days as described above and lysed with 0.2% Triton X-100. TRAP activity was measured by the conversion of p-nitrophenyl phosphate to p-nitrophenol in the presence of sodium tartrate. Thus, cell lysates were incubated with 5.5 mM phosphatase substrate diluted in 100 mM citrate buffer and 10 mM sodium tartrate, for 40 minutes at 37°C. The reaction was stopped by addition of 0.4 N sodium hydroxide and absorbance was measured at 405 nm using a microplate reader (Molecular Devices). TRAP activity was normalized to total protein content as determined by the Bradford assay (Bio-Rad protein assay). TRAP activity per μg of total protein was expressed as a percentage of the positive control treated without compounds. IC50 values were calculated as mean ± SEM from three independent experiments performed in duplicate.

With `O=C(NNC(=NS(=O)(=O)c1ccc(-n2nc(C(F)(F)F)cc2-c2cccs2)cc1)N1CCCC1)c1ccc(Cl)cc1` [Compound T8, N-[(4-chlorobenzoyl)amino]-N'-[4-[5-thiophen-2-yl-3-(trifluoromethyl)pyrazol-1-yl]phenyl]sulfonylpyrrolidine-1-carboximidamide], the CC50 at 1 day in series [1] was > 100 µM. The IC50 stood at 30 ± 2.3 µM at TNF/TNFR1 interaction, 9 ± 0.7 µM at human RANKL and 40 ± 2.3 µM on TNF. In addition, the Kd on RANKL (setting [3]) was 6.15 ± 0.22 µM; on RANKL (setting [4]), 6.32 ± 0.62 µM; at RANKL (setting [5]) it was 6.55 ± 0.84 µM; on RANKL (setting [6]) it was 6.05 ± 0.37 µM; on RANKL (setting [7]), 6.3 ± 0.6 µM. Besides, the “'n' value from Scatchard plot (ligand binding sites per protein molecule)” value at RANKL is 1. Besides, the solubility in series [2] (setting [8]) is 32 µM (≈ 19.9 µg/mL); in series [2] (setting [9]), 48 µM (≈ 29.9 µg/mL); in series [2] (PEG3350 0% v/v), < 1 µM.

As for `COc1cc(OC(C)=O)c(-c2cc(OC(C)=O)c(OC)cc2OC(C)=O)cc1OC(C)=O` [Compound T23, [4-acetyloxy-2-(2,5-diacetyloxy-4-methoxyphenyl)-5-methoxyphenyl] acetate], in series [1], the CC50 at 1 day was > 100 µM. Moreover, the IC50 at TNF/TNFR1 interaction worked out at 3 ± 0.1 µM; on human RANKL, 2.6 ± 0.2 µM; at TNF, 17 ± 1.2 µM. The Kd came out at 7.02 ± 0.63 µM on RANKL (RANKL 0.5 μM, PEG3350 0%, 25 mM Tri-HCl, 100 mM NaCl pH 7.5, read-out: Binding affinity (Kd), RANKL); 7.44 ± 0.52 µM on RANKL (setting [3]); 7.25 ± 0.44 µM on RANKL (setting [4]); 7.62 ± 0.84 µM on RANKL (setting [5]); 7.02 ± 0.33 µM at RANKL (setting [6]); 7.3 ± 0.4 µM on RANKL (setting [7]). Further, the “'n' value from Scatchard plot (ligand binding sites per protein molecule)” value at RANKL was determined as 1. Besides, the figures for the solubility in series [2] (setting [8]), in series [2] (setting [9]) and in series [2] (PEG3350 0% v/v) were 88 µM, 117 µM and 36 µM, respectively.
